Experimental data from patent US20120094964A1, “SULFAMOYL BENZOIC ACID DERIVATIVES AS TRPM8 ANTAGONISTS” (priority 2009, published 2012).

These compounds were tested against T1, human TRPM8 (Homo sapiens, UniProt Q7Z2W7) (assay: In Vitro human TRPM8 Functional Assay (intracellular Ca2+, Fluo4, FDSS, menthol activation)). Settings: HEK293 cells stably expressing human TRPM8; activation with L-(-)-Menthol; 11-point dose-response.
T1 construct: expressed in transfected cells
Format: cell-based
How it was run: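 Fluo4-loaded HEK293 cells stably expressing TRPM8 were preincubated with compound for 5 min at room temperature, then stimulated with L-menthol (20 μl of 90 μM stock) while fluorescence was read. IC50 values come from 11-point curves fitted to the mean of duplicate wells.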

T1 sequence (Q7Z2W7 whole entry): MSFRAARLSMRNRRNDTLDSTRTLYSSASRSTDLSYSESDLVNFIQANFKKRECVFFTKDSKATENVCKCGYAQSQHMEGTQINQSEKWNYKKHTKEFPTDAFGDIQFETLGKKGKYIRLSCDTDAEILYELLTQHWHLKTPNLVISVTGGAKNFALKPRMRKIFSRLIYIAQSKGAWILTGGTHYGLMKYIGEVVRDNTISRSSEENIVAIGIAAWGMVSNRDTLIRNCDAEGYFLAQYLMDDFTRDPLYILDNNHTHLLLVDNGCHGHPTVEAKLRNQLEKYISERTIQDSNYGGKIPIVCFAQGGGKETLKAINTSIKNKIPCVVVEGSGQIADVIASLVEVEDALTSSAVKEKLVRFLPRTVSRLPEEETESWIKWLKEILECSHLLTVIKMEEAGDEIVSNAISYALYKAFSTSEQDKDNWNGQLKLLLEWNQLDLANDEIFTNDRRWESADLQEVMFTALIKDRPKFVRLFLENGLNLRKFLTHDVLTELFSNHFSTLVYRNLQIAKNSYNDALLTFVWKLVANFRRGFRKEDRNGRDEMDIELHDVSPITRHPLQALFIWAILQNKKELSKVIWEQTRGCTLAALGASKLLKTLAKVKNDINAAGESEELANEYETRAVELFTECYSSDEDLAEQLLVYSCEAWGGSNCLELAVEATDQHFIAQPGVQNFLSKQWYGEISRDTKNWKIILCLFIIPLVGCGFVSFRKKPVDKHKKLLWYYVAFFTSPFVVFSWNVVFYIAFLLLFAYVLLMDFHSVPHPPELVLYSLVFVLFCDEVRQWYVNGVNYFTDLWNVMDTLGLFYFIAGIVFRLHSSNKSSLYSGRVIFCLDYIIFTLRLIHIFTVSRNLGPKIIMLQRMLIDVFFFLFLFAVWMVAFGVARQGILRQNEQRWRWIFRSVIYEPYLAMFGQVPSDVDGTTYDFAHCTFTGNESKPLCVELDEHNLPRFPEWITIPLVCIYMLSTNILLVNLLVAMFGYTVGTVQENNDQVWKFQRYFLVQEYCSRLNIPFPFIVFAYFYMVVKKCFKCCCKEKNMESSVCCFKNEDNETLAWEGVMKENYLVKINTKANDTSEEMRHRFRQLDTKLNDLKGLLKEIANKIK

Compound	IC50
O=C(O)c1ccc(S(=O)(=O)N(CCN2CCCCC2)c2ccc(C(F)(F)F)cc2Cl)cc1 [Example 83, 4-(N-(2-Chloro-4-(trifluoromethyl)phenyl)-N-(2-(piperidin-1-yl)ethyl)sulfamoyl)benzoic acid]	1000 to 10000 nM
O=C(O)c1ccc(S(=O)(=O)N(Cc2ccc(Cl)c(C(F)(F)F)c2)c2ncc(Cl)cc2Cl)cc1 [Example 66, 4-(N-(4-Chloro-3-(trifluoromethyl)benzyl)-N-(3,5-dichloropyridin-2-yl)sulfamoyl)benzoic acid]	< 1000 nM
O=C(O)c1cc(S(=O)(=O)N(Cc2ccccc2)c2ccccc2)ccc1Cl [Example 117, 5-(N-Benzyl-N-phenylsulfamoyl)-2-chlorobenzoic acid]	10000 to 30000 nM
Cc1ccc(CN(c2ncc(C(F)(F)F)cc2Cl)S(=O)(=O)c2ccc(C(=O)O)cc2)cc1 [Example 27, 4-(N-(3-Chloro-5-(trifluoromethyl)pyridin-2-yl)-N-(4-methylbenzyl)sulfamoyl)benzoic acid]	< 1000 nM
N#Cc1ccc(CN(c2ncc(C(F)(F)F)cc2Cl)S(=O)(=O)c2ccc(C(=O)O)cc2)cc1 [Example 33, 4-(N-(3-Chloro-5-(trifluoromethyl)pyridin-2-yl)-N-(4-cyanobenzyl)sulfamoyl)benzoic acid]	< 1000 nM
O=C(O)c1ccc(S(=O)(=O)N(CCCc2ccccc2)c2ncc(C(F)(F)F)cc2Cl)cc1 [Example 59, 4-(N-(3-Chloro-5-(trifluoromethyl)pyridin-2-yl)-N-(3-phenylpropyl)sulfamoyl)benzoic acid]	< 1000 nM
COc1ccc(N(C(C)c2ccc(C)cc2)S(=O)(=O)c2cc(Cl)ccc2F)cc1 (stereo not shown) [Example 134, 5-Chloro-2-fluoro-N-(4-methoxyphenyl)-N-(1-p-tolylethyl)benezene-sulfonamide]	1000 to 10000 nM
Cc1cc(C(=O)O)ccc1S(=O)(=O)N(Cc1ccccc1)c1ncc(C(F)(F)F)cc1Cl [Example 145, 4-(N-Benzyl-N-(3-chloro-5-(trifluoromethyl)pyridin-2-yl)sulfamoyl)-3-methylbenzoic acid]	< 1000 nM
O=C(O)c1ccc(S(=O)(=O)N(c2ncc(C(F)(F)F)cc2Cl)C2(c3ccccc3)CC2)cc1 [Example 193, 4-(N-(3-Chloro-5-(trifluoromethyl)pyridin-2-yl)-N-(1-phenylcyclopropyl)sulfamoyl)benzoic acid]	< 1000 nM
O=C(O)c1ccc(S(=O)(=O)N(Cc2ccc(-n3cccn3)cc2)c2ncc(C(F)(F)F)cc2Cl)cc1 [Example 170, 4-(N-(4-(1H-Pyrazol-1-yl)benzyl)-N-(3-chloro-5-(trifluoromethyl)pyridin-2-yl)sulfamoyl)benzoic acid]	< 1000 nM
O=C(O)c1ccc(S(=O)(=O)N(Cc2ccccc2)c2ncc(C(F)(F)F)cc2Cl)c(F)c1 [Example 190, 4-(N-Benzyl-N-(3-chloro-5-(trifluoromethyl)pyridin-2-yl)sulfamoyl)-3-fluorobenzoic acid]	< 1000 nM
O=S(=O)(c1ccc(O)nc1)N(Cc1ccccc1)c1ncc(C(F)(F)F)cc1Cl [Example 144, N-Benzyl-N-(3-chloro-5-(trifluoromethyl)pyridin-2-yl)-6-hydroxypyridine-3-sulfonamide]	< 1000 nM
O=C(O)c1ccc(S(=O)(=O)N(Cc2cccc(-c3ccccc3)c2)c2ncc(C(F)(F)F)cc2Cl)cc1 [Example 164, 4-(N-[(1,1′-Biphenyl]-3-ylmethyl)-N-(3-chloro-5-(trifluoromethyl)pyridin-2-yl)sulfamoyl)benzoic acid]	< 1000 nM
O=C(O)c1ccc(S(=O)(=O)N(Cc2cccc(Cl)c2)c2ncc(C(F)(F)F)cc2Cl)cc1 [Example 48, 4-(N-(3-Chloro-5-(trifluoromethyl)pyridin-2-yl)-N-(3-chlorobenzyl)sulfamoyl)benzoic acid]	< 1000 nM
O=S(=O)(c1cccc2cccnc12)N(Cc1ccccc1)c1ccccn1 [Example 128, N-Benzyl-N-(pyridin-2-yl) quinoline-8-sulfonamide]	1000 to 10000 nM
COc1cccc(C(C)N(c2ccccc2)S(=O)(=O)c2ccc(C)c(F)c2)c1 (stereo not shown) [Example 101, 3-Fluoro-N-(1-(3-methoxyphenyl)ethyl)-4-methyl-N-phenylbenzene-sulfonamide]	1000 to 10000 nM
O=C(CN(c1cccc(C(F)(F)F)c1)S(=O)(=O)c1ccccc1)N1CCCCC1 [Example 6, N-(2-oxo-2-(piperidin-1-yl)ethyl)-N-(3-(trifluoromethyl)phenyl)benzenesulfonamide]	10000 to 30000 nM
Cc1cc(C)c(S(=O)(=O)N(Cc2ccccc2)c2ccccn2)c(C)c1 [Example 127, N-Benzyl-2,4,6-trimethyl-N-(pyridin-2-yl)benzene-sulfonamide]	1000 to 10000 nM
O=C(O)c1cc(S(=O)(=O)N(Cc2ccccc2)c2ccc(Cl)cc2)ccc1Cl [Example 122, 5-(N-Benzyl-N-(4-chlorophenyl)sulfamoyl)-2-chlorobenzoic acid]	1000 to 10000 nM
O=C(O)c1ccc(S(=O)(=O)N(CC2CCCC2)c2ncc(C(F)(F)F)cc2Cl)cc1 [Example 192, 4-(N-(3-Chloro-5-(trifluoromethyl)pyridin-2-yl)-N-(cyclopentylmethyl)sulfamoyl)benzoic acid]	< 1000 nM

Compound	IC50
CC(=O)NCc1ccc(S(=O)(=O)N(Cc2ccccc2)c2ncc(C(F)(F)F)cc2Cl)cc1 [Example 177, N-(4-(N-Benzyl-N-(3-chloro-5-(trifluoromethyl)pyridin-2-yl)sulfamoyl)benzyl)acetamide]	< 1000 nM
C[C@@H](c1ccccc1)N(c1ncc(C(F)(F)F)cc1Cl)S(=O)(=O)c1ccc(C(=O)O)cc1 [Example 197, (S)-4-(N-(3-Chloro-5-(trifluoromethyl)pyridin-2-yl)-N-(1-phenylethyl)sulfamoyl)benzoic acid]	< 1000 nM
O=S(=O)(c1ccc(Cl)cc1)N(Cc1ccccc1)c1ccccn1 [Example 129, N-Benzyl-4-chloro-N-(pyridin-2-yl)benzene-sulfonamide]	1000 to 10000 nM
Cc1cc(Cl)cnc1N(Cc1ccc(F)c(Cl)c1)S(=O)(=O)c1ccc(C(=O)O)cc1 [Example 77, 4-(N-(5-Chloro-3-methylpyridin-2-yl)-N-(3-chloro-4-fluorobenzyl)sulfamoyl)benzoic acid]	< 1000 nM
O=S(=O)(c1ccc(F)cc1)N(Cc1ccccc1)c1ccccn1 [Example 108, N-Benzyl-4-fluoro-N-(pyridin-2-yl)benezene-sulfonamide]	1000 to 10000 nM
O=C(O)c1ccc(S(=O)(=O)N(Cc2ccccc2)c2ncccc2C(F)(F)F)cc1 [Example 2, 4-(N-Benzyl-N-(3-(trifluoromethyl)pyridin-2-yl)sulfamoyl)benzoic acid]	10000 to 30000 nM
COc1ccccc1N(Cc1ccccc1)S(=O)(=O)c1cc(C(=O)O)ccc1Cl [Example 118, 3-(N-Benzyl-N-(2-methoxyphenyl)sulfamoyl)-4-chlorobenzoic acid]	1000 to 10000 nM
O=C(O)c1ccc(S(=O)(=O)N(Cc2ccc(Cl)c(F)c2)c2ncc(C(F)(F)F)cc2Cl)cc1 [Example 65, 4-(N-(4-Chloro-3-fluorobenzyl)-N-(3-chloro-5-(trifluoromethyl)pyridin-2-yl)sulfamoyl)benzoic acid]	< 1000 nM
O=S(=O)(c1cc(Cl)ccc1Cl)N(Cc1ccccc1)c1ccccn1 [Example 109, N-Benzyl-2,5-dichloro-N-(pyridin-2-yl)benzene sulfonamide]	1000 to 10000 nM
Cc1cc(Cl)cnc1N(Cc1ccc(C(F)(F)F)cc1)S(=O)(=O)c1ccc(C(=O)O)cc1 [Example 55, 4-(N-(5-Chloro-3-methylpyridin-2-yl)-N-(4-(trifluoromethyl)benzyl)sulfamoyl)benzoic acid]	< 1000 nM
O=C(O)c1ccc(S(=O)(=O)N(Cc2ccc(F)cc2)c2ncc(Cl)cc2Cl)cc1 [Example 61, 4-(N-(3,5-Dichloropyridin-2-yl)-N-(4-fluorobenzyl)sulfamoyl)benzoic acid]	< 1000 nM
COc1ccc(S(=O)(=O)N(Cc2ccccc2)c2ncc(C(F)(F)F)cc2Cl)cn1 [Example 189, N-Benzyl-N-(3-chloro-5-(trifluoromethyl)pyridin-2-yl)-6-methoxypyridine-3-sulfonamide]	< 1000 nM
O=C(O)c1ccc(S(=O)(=O)N(Cc2cccc(C(F)(F)F)c2)c2ncc(C(F)(F)F)cc2Cl)cc1 [Example 23, 4-(N-(3-Chloro-5-(trifluoromethyl)pyridin-2-yl)-N-(3-(trifluoromethyl)benzyl)sulfamoyl)benzoic acid]	< 1000 nM
CN1CCN(C(=O)CN(c2cccc(C(F)(F)F)c2)S(=O)(=O)c2ccccc2)CC1 [Example 5, N-(2-(4-Methylpiperazin-1-yl)-2-oxoethyl)-N-(3-(trifluoromethyl)phenyl)benzenesulfonamide]	< 1000 nM
O=C(O)c1ccc(Cl)c(S(=O)(=O)N(Cc2ccccc2)c2ccccc2)c1 [Example 126, 3-(N-Benzyl-N-phenylsulfamoyl)-4-chlorobenzoic acid]	10000 to 30000 nM
Cc1cc(Cl)cnc1N(Cc1ccc(N2CCCC2=O)cc1)S(=O)(=O)c1ccc(C(=O)O)cc1 [Example 80, 4-(N-(5-Chloro-3-methylpyridin-2-yl)-N-(4-(2-oxopyrrolidin-1-yl)benzyl)sulfamoyl)benzoic acid]	1000 to 10000 nM
O=C(O)c1ccc(S(=O)(=O)N(Cc2ccccc2)c2ncc(Br)cc2Cl)cc1 [Example 180, 4-(N-Benzyl-N-(5-bromo-3-chloropyridin-2-yl)sulfamoyl)benzoic acid]	< 1000 nM
Cc1cccc(N(C(C)c2ccccc2F)S(=O)(=O)c2cc(F)ccc2C)c1 (stereo not shown) [Example 99, 5-Fluoro-N-(1-(2-fluoro-phenyl)ethyl)-2-methyl-N-m-tolylbenzenesulfonamide]	1000 to 10000 nM
COc1ccc(S(=O)(=O)N(Cc2ccccc2)c2ccccn2)cc1 [Example 132, N-Benzyl-4-methoxy-N-(pyridin-2-yl)benzene-sulfonamide]	1000 to 10000 nM
O=C(O)c1ccc(S(=O)(=O)N(Cc2ccccc2)c2ncc(C(F)(F)F)cc2Cl)cc1 [Example 1, 4-(N-Benzyl-N-(3-chloro-5-(trifluoromethyl)pyridin-2-yl)sulfamoyl)benzoic acid]	< 1000 nM
